Active and inactive are the calls of the source. No cut-off for these calls is given here.
Assays:
Homo sapiens [1] = organism: Homo sapiens; assay: (§1) Selectivity ratio of EC50 for agonist activity at human 5HT2A S159A mutant transfected in HEK293T cells assessed as beta arrestin-2 recruitment measured for 2 hrs by luminescent assay to EC50 for agonist activity at human wild type 5HT2A receptor transfected in HEK293T cells assessed as beta arrestin-2 recruitment measured for 2 hrs by luminescent assay; assay type: cell-based
[2] = target: 5-hydroxytryptamine receptor 2A (Homo sapiens) (UniProt P28223); assay: Agonist activity at wild type human 5HT2A transfected in HEK293T cells assessed as beta arrestin-2 recruitment measured for 2 hrs by luminescent assay; assay type: functional, cell-based; conditions: filed as agonist
Homo sapiens [3] = organism: Homo sapiens; assay: as §1, with “mini Galphaq” for “beta arrestin-2”, “5HT2A” for “5HT2A receptor”; assay type: cell-based

Chain of 5-hydroxytryptamine receptor 2A (Homo sapiens) (P28223 whole entry): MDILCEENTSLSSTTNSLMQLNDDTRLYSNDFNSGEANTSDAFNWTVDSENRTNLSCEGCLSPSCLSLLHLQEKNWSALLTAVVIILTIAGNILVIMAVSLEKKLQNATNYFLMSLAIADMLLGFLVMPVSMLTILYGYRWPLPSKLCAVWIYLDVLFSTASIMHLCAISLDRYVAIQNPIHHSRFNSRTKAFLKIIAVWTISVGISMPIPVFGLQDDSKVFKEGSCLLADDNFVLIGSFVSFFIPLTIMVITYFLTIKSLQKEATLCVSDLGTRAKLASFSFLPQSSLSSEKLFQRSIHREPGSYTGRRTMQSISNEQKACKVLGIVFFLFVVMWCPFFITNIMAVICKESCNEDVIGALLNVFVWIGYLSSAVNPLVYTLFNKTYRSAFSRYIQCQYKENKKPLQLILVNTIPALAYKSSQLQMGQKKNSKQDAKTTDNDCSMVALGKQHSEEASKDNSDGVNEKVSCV

SMILES	Ratio EC50 (Homo sapiens [1])	Activity [2]	Ratio EC50 (Homo sapiens [3])
COc1cc(CCNCc2ccccc2F)c(OC)cc1C#N	3		
COc1cc(CCNC2COc3ccccc32)c(OC)cc1C#N (racemic)		Active	
COc1cc(CCNCc2cccc(O)c2)c(OC)cc1Br	15		12
